Data published in patent publication US5985603A, “P2x receptor DNA and protein sequence” (Glaxo Group Limited, priority 1994, dated 1999).
Counter-ions that a name gives are not always drawn. Like-named read-outs stand apart in the source and are kept apart here. Each block holds one molecule with its values, some of them ahead of it.

What was measured:
Format in all cases: cell-based
hP2X [1] = target: T1, hP2X (Homo sapiens, UniProt P51575); assay: inward currents evoked by purinoceptor agonists in Xenopus oocytes expressing hP2X; conditions: for relative potency: relative to ATP, from EEC50; for full agonist activity: concentration-response curves; for Emax at 100 µM: read-out: small inward current, % of the response to 100 μM ATP; for Emax: read-out: maximal response, % of the maximal ATP response
T1 construct: expressed in transfected cells; host or cells: Xenopus oocytes injected with in vitro transcribed RNA
T1 sequence (P51575 1-399): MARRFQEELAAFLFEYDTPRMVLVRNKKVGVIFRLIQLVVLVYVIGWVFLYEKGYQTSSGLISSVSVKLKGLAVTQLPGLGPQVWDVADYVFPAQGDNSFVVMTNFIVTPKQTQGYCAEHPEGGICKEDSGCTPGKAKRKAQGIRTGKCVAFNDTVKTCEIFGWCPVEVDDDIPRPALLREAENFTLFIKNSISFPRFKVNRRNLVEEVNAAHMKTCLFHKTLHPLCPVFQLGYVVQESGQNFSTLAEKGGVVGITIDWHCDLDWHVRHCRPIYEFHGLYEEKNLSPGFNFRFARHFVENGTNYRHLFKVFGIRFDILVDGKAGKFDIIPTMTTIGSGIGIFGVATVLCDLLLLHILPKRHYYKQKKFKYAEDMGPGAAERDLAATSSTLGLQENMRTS
Protocol: (§1) Human urinary bladder P2X cDNA, subcloned into the pBKCMV expression vector, was linearized with Notl, and transcribed in vitro with T3 polymerase in the presence of cap analogue m7G(5')ppp(5')G. Defolliculated Xenopus oocytes (Bertrand et al, Electrophysiology of neuronal nicotinic acetylcholine receptors expressed in Xenopus oocytes following nuclear injection of genes or cDNAs Meth Neurosci 4: 174-193 (1991)) were injected with 50 ng of human P2X in vitro transcribed RNA, and incubated at 18° C. for 2-6 days in the ND96 solution (mM): NaCl96, KCl2, MgCl2 1, CaCl2 2, sodium pyruvate 5, HEPES 5, ph 7.6-7.5, penicillin (10 U/ml), and streptomycin (10 μg/ml).
Oocytes were placed in a 1 ml chamber and superfused at 2-3 ml/min with ND96 solution with 0.1 mM BaCl2 replacing the 2 mM CaCl2 to prevent activation of endogenous calcium-activated chloride currents (Barish, A transient calcium-dependent chloride current in the immature Xenopus oocytes J Physiol 342: 309-325 (1983)). Currents were measured using a two-electrode voltage-clamp amplifier (Geneclamp Axon Instruments)at a holding potential of -60 mV. Microelectrodes were filled with 3 M KCl (0.5-2 M.OMEGA.). Data were collected using PClamp software (Axon Instruments). […] Antagonists were applied both in the superfusate and together with ATP in the U-tube solution.
Concentration response curves for purinoceptor agonists were fitted with a Hill slope of 1. […] Data are presented throughout as mean ± SEM for a given number of oocytes.

hP2X [2] = target: T1, hP2X; assay: antagonist inhibition of ATP-evoked currents in Xenopus oocytes expressing hP2X; conditions: for inhibition of inward currents evoked by 10 μM ATP: 10 μM ATP (approximately EC90); for reversibility of antagonism on washout: PPADS, P5P
Protocol: as §1
Oocytes were placed in a 1 ml chamber and superfused at 2-3 ml/min with ND96 solution with 0.1 mM BaCl2 replacing the 2 mM CaCl2 to prevent activation of endogenous calcium-activated chloride currents (Barish, A transient calcium-dependent chloride current in the immature Xenopus oocytes J Physiol 342: 309-325 (1983)). Currents were measured using a two-electrode voltage-clamp amplifier (Geneclamp Axon Instruments)at a holding potential of -60 mV. Microelectrodes were filled with 3 M KCl (0.5-2 M.OMEGA.). Data were collected using PClamp software (Axon Instruments). ATP and other purinoceptor agonists were applied by a U-tube perfusion system (Fenwick et al, A patch clamp study of bovine chromaffin cells and their sensitivity to acetylcholine J Physiol 331: 577-597 (1982)) placed close (200-500 μm) to the oocyte. […] Concentration response relationships to ATP and its analogs were determined by measuring the peak amplitude of responses to a 5 s application of agonist applied at 10 min intervals. Responses to agonists were normalized in each oocyte to the peak response evoked by 100 μM ATP; 100 μM ATP was usually applied at the beginning and at the end of an experiment to determine if there was any rundown of the response. […] Antagonists were applied both in the superfusate and together with ATP in the U-tube solution. Antagonists were superfused for 5-10 min prior to the application of ATP.
Concentration response curves for purinoceptor agonists were fitted with a Hill slope of 1. Equi-effective concentrations i.e. concentration of agonist, giving 50% of the response to 100 μM ATP, (EEC50) were determined from individual concentration response curves. […] Data are presented throughout as mean ± SEM for a given number of oocytes.

PC12 P2X receptor = target: T2, PC12 P2X receptor (Rattus norvegicus, UniProt P49653); assay: functional properties of cloned P2X receptors (electrical recordings): PC12
T2 construct: host or cells: HEK293 cells (oocytes are also named for the functional characterisation of clone 3)
T2 sequence (P49653 1-472): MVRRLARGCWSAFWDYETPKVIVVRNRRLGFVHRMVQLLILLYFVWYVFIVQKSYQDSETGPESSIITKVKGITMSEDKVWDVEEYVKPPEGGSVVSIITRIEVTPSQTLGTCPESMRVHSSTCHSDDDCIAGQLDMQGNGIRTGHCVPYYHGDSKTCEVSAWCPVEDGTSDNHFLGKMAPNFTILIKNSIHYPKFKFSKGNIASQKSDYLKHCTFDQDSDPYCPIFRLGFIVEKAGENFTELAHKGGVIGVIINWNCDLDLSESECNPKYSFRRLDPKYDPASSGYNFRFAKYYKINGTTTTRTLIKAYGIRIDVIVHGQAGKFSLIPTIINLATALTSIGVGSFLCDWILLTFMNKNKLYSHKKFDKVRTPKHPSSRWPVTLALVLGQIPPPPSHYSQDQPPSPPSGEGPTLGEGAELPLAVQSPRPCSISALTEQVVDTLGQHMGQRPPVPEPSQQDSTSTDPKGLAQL
Protocol: (§2) HEK 293 cells were transfected by the lipofectin method (Felgner et al., Proc. Nat'l. Acad. Sci. USA 84 7413-7417 (1987)) with P2X -plasmid. DNA concentration used was 1 mg/2 ml medium placed into a 35 mm petri dish containing four 11 mm diameter coverslips on which HEK cells were placed at 10,000 cells per coverslip. […] Currents were recorded from HEK 293 cells using whole-cell recording methods and the AXOPATCH™ 200 amplifier (Axon Instruments); patch pipettes (5 M.OMEGA.) contained (mM) Cs or K aspartate 140, NaCl 5, EGTA 11, HEPES 5. The external solution was (mM) NaCl 150, KCl2, CaCl2 2, MgCl2 1, HEPES 5 and glucose 11; the pH and osmolarity of both solutions were maintained at 7.3 and 305 mosmol/l respectively. All recordings performed at room temperature. Data acquisition and analysis were performed using pCLAMP™ and AXOGRAPH™ software (Axon Instruments). […] The pH and osmolarity of the solutions were 7.4 and 295 mosmol/l respectively. For single channel measurements, a […]™ 500 amplifier and outside-out recording methods were used (Adelman et al., Neuron 9 209-216 (1992)). Wax-coated patch pipettes (5-10 M.OMEGA.) contained (mM) K-gluconate 115, HEPES 5, BAPTA 5 and MgCl2 0.5, external solution was 96 mM NaCl, 2 mM KCl, 1.8 mM CaCl2, 1 mM MgCl2, 5 mM Hepes pH 7.6, and 5 mM sodium pyruvate.
(§3) The functional characterisation of the clone illustrated in FIG. 2 (referred to herein as clone 3) was carried out by electrical recordings from transfected HEK293 cells and from oocytes injected with the in vitro transcribed RNA, as described in Example 4 for the rat vas deferens P2X receptor. Table A summarizes the main properties of clone 3 as compared to those of rat vas/human bladder cDNA clone, and the PC12 cDNA clone (provided by David Julius and Tony Brake of the University of California at San Francisco).

[3] = target: T3, rat superior cervical ganglion P2X receptor (clone 3) (Rattus norvegicus, UniProt P51577); assay: functional properties of cloned P2X receptors (electrical recordings): clone 3; conditions: for antagonist profile, clone 3 (block): Table A, concentration not given; for sensitivity of ATP-activated currents to antagonism, compared with rat vas deferens/human bladder and PC12 forms: clone 3 (FIG. 15)
T3 construct: The insert appeared to be a full length cDNA; expressed in transfected cells; host or cells: HEK293 cells transfected with pcDNA3 construct p464 (also oocytes injected with in vitro transcribed RNA)
T3 sequence (P51577 1-388): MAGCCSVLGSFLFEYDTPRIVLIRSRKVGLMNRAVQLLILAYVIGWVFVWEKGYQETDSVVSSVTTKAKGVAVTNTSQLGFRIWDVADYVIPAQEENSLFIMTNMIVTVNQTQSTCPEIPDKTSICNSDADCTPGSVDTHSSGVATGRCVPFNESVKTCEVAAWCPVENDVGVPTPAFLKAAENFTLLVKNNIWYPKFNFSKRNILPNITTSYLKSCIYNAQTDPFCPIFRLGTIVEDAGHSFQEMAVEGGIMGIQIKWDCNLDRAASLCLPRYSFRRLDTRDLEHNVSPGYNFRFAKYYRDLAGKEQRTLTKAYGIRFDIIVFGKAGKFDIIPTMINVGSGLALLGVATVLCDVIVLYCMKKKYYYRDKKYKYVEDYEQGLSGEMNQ
Protocol: as §2, §3

Molecule: Nc1ncnc2c1ncn2[C@@H]1O[C@H](COP(=O)([O-])OP(=O)([O-])[O-])[C@@H](O)[C@H]1O.[Na+].[Na+].[Na+] [ADP, adenosine 5'-diphosphate sodium salt]
- EC50 (hP2X [1]): 34.3 ± 16 µM
- full agonist activity (hP2X [1]): full agonists
- relative potency (hP2X [1]): 0.024

Molecule: Nc1ncnc2c1ncn2[C@@H]1O[C@H](COP(=O)(O)O)[C@@H](O)[C@H]1O [AMP, adenosine 5'-monophosphate sodium salt]
- Emax at 100 µM (hP2X [1]): 6.08 ± 2%

Molecule: Nc1ncnc2c1ncn2[C@@H]1O[C@H](COP(=O)(O)OP(=O)(O)OP(O)(O)=S)[C@@H](O)[C@H]1O [ATP-γ-S, adenosine 5'-O-(-3-thiophosphate) tetralithium salt]
- EC50 (hP2X [1]): 10.6 ± 3.8 µM
- Emax (hP2X [1]): ~65%
- relative potency (hP2X [1]): 0.077

Molecule: Nc1ncnc2c1ncn2[C@@H]1O[C@H](CO)[C@@H](O)[C@H]1O [Adenosine]
- Emax at 100 µM (hP2X [1]): 2.3 ± 1.5%

Molecule: O=c1ccn([C@@H]2O[C@H](COP(=O)(O)OP(=O)(O)OP(=O)(O)O)[C@@H](O)[C@H]2O)c(=O)[nH]1 [UTP, uridine 5'-triphosphate sodium salt]
- Emax at 100 µM (hP2X [1]): 3.7 ± 1.8%

Molecule: Nc1ncnc2c1ncn2[C@@H]1O[C@H](COP(=O)(O)OP(=O)(O)CP(=O)(O)O)[C@@H](O)[C@H]1O [d,β,γ-meATP, β,γ-methylene-D-ATP sodium salt]
- EC50 (hP2X [1]): 24.1 ± 1.6 µM
- relative potency (hP2X [1]): 0.034

Continued, in another order:

- maximal response, % of the maximal ATP response (hP2X [1]): about 65%
- EC50 (hP2X [1]; read-out: EEC50: equieffective concentration producing an inward current equivalent to 50% of the peak response to 100 μM ATP, Hill slope of 1, mean ± SEM, n = 3-4, ATP value from mean data from all experiments): 4.2 ± 2.2 µM
- relative potency (hP2X [1]): 0.20
Molecule: 2'-3'-O-(4-benzoylbenzol)ATP tetraethylamonium salt [BzATP]

- EC50 (hP2X [1]): 0.76 ± 0.1 µM
- comparison of concentration-effect curves (hP2X [1]; ATP, 2MeSATP and 2-chloro-ATP): superimposable
- full agonist activity (hP2X [1]): full agonists
- relative potency (hP2X [1]): 1.08
Molecule: Nc1nc(Cl)nc2c1ncn2[C@@H]1O[C@H](COP(=O)(O)OP(=O)(O)OP(=O)(O)O)[C@@H](O)[C@H]1O [2chloroATP, 2-chloro-ATP tetra sodium salt]

- EC50 (hP2X [1]): 2 ± 0.2 µM
- Emax (hP2X [1]): ~65%
- relative potency (hP2X [1]): 0.41
Molecule: Nc1ncnc2c1ncn2[C@@H]1O[C@H](COP(=O)(O)OP(=O)(O)OP(=O)(O)OP(=O)(O)OP(=O)(O)OC[C@H]2O[C@@H](n3cnc4c(N)ncnc43)[C@H](O)[C@@H]2O)[C@@H](O)[C@H]1O [AP5A, p1, p5-di [adenosine-5'] pentaphosphate trilithium salt]

- IC50 (hP2X [2]): ~1 µM
- reversibility of inhibitory effects on washout (hP2X [2]; DIDS 100 μM): very slow to reverse on washout
- IC50 (PC12 P2X receptor): > 100 µM
Molecule: O=S(=O)(O)c1cc(N=C=S)ccc1C=Cc1ccc(N=C=S)cc1S(=O)(=O)O [DIDS, 4,4'-diisothiocyanatostilbene 2,2'-disulphonic acid, disodium salt]
- inhibition of inward currents evoked by 10 μM ATP (hP2X [2]): inhibited inward currents evoked by 10 μM ATP

- IC50 (hP2X [2]): ~20 µM
- reversibility of antagonism on washout (hP2X [2]): readily reversible on washout
- antagonist profile, clone 3 (block) [3]: < 40%
- sensitivity of ATP-activated currents to antagonism, compared with rat vas deferens/human bladder and PC12 forms [3]: much less sensitive to antagonism
Molecule: Cc1ncc(COP(=O)(O)O)c(C=O)c1O [P5 P, Pyridoxal 5-phosphate monohydrate]
- inhibition of inward currents evoked by 10 μM ATP (hP2X [2]): inhibited inward currents evoked by 10 μM ATP

- IC50 (hP2X [2]): ~1 µM
- reversibility of antagonism on washout (hP2X [2]): readily reversible on washout
- antagonist profile, clone 3 (block) [3]: < 30%
- sensitivity of ATP-activated currents to antagonism, compared with rat vas deferens/human bladder and PC12 forms [3]: much less sensitive to antagonism
Molecule: Cc1nc(N=Nc2ccc(S(=O)(=O)O)cc2S(=O)(=O)O)c(COP(=O)(O)O)c(C=O)c1O [PPADS, pyridoxal phosphate 6-azophenyl 2',4'-disulphonic acid]
- inhibition of inward currents evoked by 10 μM ATP (hP2X [2]): inhibited inward currents evoked by 10 μM ATP
